Test [1] has as its target T1, glutathione-S-transferase (GST) tagged LXRalpha LBD (ligand binding domain) (Homo sapiens, UniProt Q13133).
T1 construct: purchased Invitrogen pv4655
T1 sequence (Q13133 209-447 limits assumed): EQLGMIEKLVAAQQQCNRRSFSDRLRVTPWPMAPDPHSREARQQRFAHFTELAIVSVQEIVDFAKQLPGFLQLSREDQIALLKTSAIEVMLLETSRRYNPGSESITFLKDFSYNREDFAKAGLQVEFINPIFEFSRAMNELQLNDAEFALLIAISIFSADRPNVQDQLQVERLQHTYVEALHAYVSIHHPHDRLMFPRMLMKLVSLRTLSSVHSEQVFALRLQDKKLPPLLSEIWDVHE
Briefly: LanthaScreen TR-FRET Liver X Receptor Coactivator Assay, co-activator recruitment to LXRalpha LBD. To be noted: for Emax: read-out: LXR alpha Activity @ max dose (%); for pEC50 / LXR alpha IP (nM): potency (Inflection Point, IP), co-activator recruitment to LXRalpha LBD, in relation to T0901317; for pEC50: read-out: LXR alpha IP. The class given is biochemical. The gist of the method:
(§1)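 Readout is time-resolved FRET between a terbium anti-GST antibody bound to the LBD and a fluorescein-tagged coactivator peptide recruited on ligand binding. Plates were incubated at room temperature before reading. Potency (IP) and efficacy (Emax) are referenced to T0901317.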

For test [2], the target named is T2, glutathione-S-transferase (GST) tagged LXRbeta LBD (ligand binding domain) (Homo sapiens, UniProt P55055).
T2 construct: purchased Invitrogen pv4658.pps
T2 sequence (P55055 222-460 limits assumed): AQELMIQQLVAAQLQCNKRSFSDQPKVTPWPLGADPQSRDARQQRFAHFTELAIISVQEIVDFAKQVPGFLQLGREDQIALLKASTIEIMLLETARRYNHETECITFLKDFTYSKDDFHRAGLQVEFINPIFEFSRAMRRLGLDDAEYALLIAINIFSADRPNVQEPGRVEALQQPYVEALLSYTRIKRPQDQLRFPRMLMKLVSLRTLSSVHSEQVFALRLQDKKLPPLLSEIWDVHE
Description: LanthaScreen TR-FRET Liver X Receptor Coactivator Assay, co-activator recruitment to LXRbeta LBD. It is filed as biochemical. Conditions: for Emax: read-out: LXR beta Activity @ max dose (%); for pEC50 / EC50: potency (Inflection Point, IP), co-activator recruitment to LXRbeta LBD, in relation to T0901317; for pEC50: read-out: LXR beta IP; for EC50: LXR beta IP (nM). The gist of the method: as §1
(In TR-FRET formats the signal depends on donor and acceptor labels being close together.)

The mark [3] stands for this setting: efficacy at max dose, in relation to reference dual agonist T0901317.

pEC50: −log10 of the molar value. Read-outs that look alike come from different tables or passages of the source.

Results on 14 compounds are retold here after US10752587B2, “Homobispiperidinyl derivatives as liver X receptor beta agonists, compositions and their use” (Merck Sharp & Dohme Corp., priority 2015, dated 2020).

Usually EC50 stands for the concentration needed to bring the measured effect to its halfway point. A lower EC50 goes with higher potency in that assay.

With `COc1cc(C)cc([C@@](O)(C(=O)N2CCC(CC3CCN(c4ccc(C(=O)N(C)C)c(Cl)c4)CC3)CC2)C(F)(F)F)c1` [Example 2-107, 2-chloro-N,N-dimethyl-4-[4-({1-[(2R)-3,3,3-trifluoro-2-hydroxy-2-(3-methoxy-5-methylphenyl)propanoyl]piperidin-4-yl}methyl)piperidin-1-yl]benzamide], the Emax in test [1] (setting [3]) came to 4%; in test [2] (setting [3]), 14%. Also, the figures for the pEC50 in test [1] and in test [2] were 6.51 and 6.62, respectively.
For `CCOc1cccc([C@@](O)(C(=O)N2CCC(CC3CCN(c4ccc(C(=O)N(C)C)c(Cl)c4)CC3)CC2)C(F)F)c1` [Example 2-108, 2-chloro-4-[4-({1-[(2R)-2-(3-ethoxy-phenyl)-3,3-difluoro-2-hydroxy-propanoyl]piperidin-4-yl}methyl)piperidin-1-yl]-N,N-dimethyl-benzamide], the Emax is 0% in test [1] (setting [3]) and 10% in test [2] (setting [3]). In test [1], the “LXR alpha IP (nM)” value is “NO IP”. For the same compound, the pEC50 in test [2] is 7.48.
In the case of `CC(C)C(O)(C(=O)N1CCC(CC2CCN(c3ccc(C(=O)N(C)C)c(Cl)c3)CC2)CC1)c1ccccc1` (centres unmarked) [Example 2-109, 2-chloro-4-(4-{[1-(2-hydroxy-3-methyl-2-phenylbutanoyl)piperidin-4-yl]methyl}piperidin-1-yl)-N,N-dimethyl-benzamide], the figures for the Emax in test [1] (setting [3]) and in test [2] (setting [3]) were 26% and 75%, respectively. In addition, the values for the pEC50 in test [1] and in test [2] were 6.01 and 7.14, respectively.
Consider `CC[C@](O)(C(=O)N1CCC(CC2CCN(c3ccc(C(=O)N(C)C)c(Cl)c3)CC2)CC1)c1ccccc1` [Example 2-110, 2-chloro-4-[4-({1-[(2R)-2-hydroxy-2-phenylbutanoyl]piperidin-4-yl}methyl)piperidin-1-yl]-N,N-dimethyl-benzamide], for which the Emax in test [1] (setting [3]) is 17%; in test [2] (setting [3]), 50%. Further, the “LXR alpha IP (nM)” value in test [1] is recorded as “NO IP”. Besides, in test [2], the pEC50 is 7.27.
On the same counts, the results for `Cc1cc(Cl)cc([C@@](O)(C(=O)N2CCC(CC3CCN(c4ccc(C(=O)N(C)C)c(Cl)c4)CC3)CC2)C(F)(F)F)c1` [Example 2-111, 2-chloro-4-[4-({1-[(2R)-2-(3-chloro-5-methylphenyl)-3,3,3-trifluoro-2-hydroxy-propanoyl]piperidin-4-yl}methyl)piperidin-1-yl]-N,N-dimethyl-benzamide] are 0%, 28%, “NO IP” and 8.15.
The matching figures for `Cc1cccc([C@@](O)(C(=O)N2CCC(CC3CCN(c4ccc(C(=O)N(C)C)c(Cl)c4)CC3)CC2)C(F)(F)F)c1` [Example 2-112, 2-chloro-N,N-dimethyl-4-[4-({1-[(2R)-3,3,3-trifluoro-2-hydroxy-2-(3-methylphenyl)propanoyl]piperidin-4-yl}methyl)piperidin-1-yl]benzamide]: 10%, 44%, “NO IP” and 8.10.
On the same counts, the results for `CCc1cccc([C@@](O)(C(=O)N2CCC(CC3CCN(c4ccc(C(=O)N(C)C)c(Cl)c4)CC3)CC2)C(F)(F)F)c1` [Example 2-113, 2-chloro-4-[4-({1-[(2R)-2-(3-ethyl-phenyl)-3,3,3-trifluoro-2-hydroxy-propanoyl]piperidin-4-yl}methyl)piperidin-1-yl]-N,N-dimethyl-benzamide] are 4%, 36%, “NO IP” and 7.82.
Consider `COc1cccc([C@@](O)(C(=O)N2CCC(CC3CCN(c4ccc(C(=O)N(C)C)c(Cl)c4)CC3)CC2)C2CC2)c1` [Example 2-114, 2-chloro-4-[4-({1-[(2R)-2-cyclopropyl-2-hydroxy-2-(3-methoxy-phenyl)acetyl]piperidin-4-yl}methyl)piperidin-1-yl]-N,N-dimethyl-benzamide], for which, in test [1], the “LXR alpha IP (nM)” value is recorded as “NO IP” and the Emax came to 6%. Further, in test [2], the midpoint of the response, the EC50, lay at 266 nM and the Emax amounted to 19%.
As to `COc1cccc([C@@](O)(C(=O)N2CCC(CC3CCN(c4ccc(C(=O)N(C)C)c(Cl)c4)CC3)CC2)C(C)C)c1` [Example 2-115, 2-chloro-4-[4-({1-[(2R)-2-hydroxy-2-(3-methoxy-phenyl)-3-methyl-butanoyl]piperidin-4-yl}methyl)piperidin-1-yl]-N,N-dimethyl-benzamide], the Emax in test [1] (setting [3]) turned out to be 0%; in test [2] (setting [3]), 30%. In addition, in test [1], the “LXR alpha IP (nM)” value was “NO IP”. In test [2], the pEC50 was 7.28.
Take `CN(C)C(=O)c1ccc(N2CCC(CC3CCN(C(=O)[C@](O)(c4cccc(OC(F)F)c4)C(F)(F)F)CC3)CC2)cc1Cl` [Example 2-116, 2-chloro-4-{4-[(1-{(2R)-2-[3-(difluoro-methoxy)phenyl]-3,3,3-trifluoro-2-hydroxy-propanoyl}piperidin-4-yl)methyl]piperidin-1-yl}-N,N-dimethyl-benzamide]: the Emax in test [1] (setting [3]) came out at 20%; in test [2] (setting [3]) it was 58%. Besides, the pEC50 in test [1] is 6.64; in test [2], 8.15.
As to `CN(C)C(=O)c1ccc(N2CCC(CC3CCN(C(=O)[C@](N)(c4cc(Cl)cc(Cl)c4)C(F)(F)F)CC3)CC2)cc1Cl` [Example 2-117, 4-[4-({1-[(2R)-2-amino-2-(3,5-dichloro-phenyl)-3,3,3-trifluoro-propanoyl]piperidin-4-yl}methyl)piperidin-1-yl]-2-chloro-N,N-dimethyl-benzamide], the Emax in test [1] (setting [3]) turned out to be 29%; in test [2] (setting [3]), 125%. Further, the values for the pEC50 in test [1] and in test [2] were 6.00 and 7.66, respectively.
As to `CN(C)C(=O)c1ccc(N2CCC(CC3CCN(C(=O)C(O)(c4ccccn4)C4CC4)CC3)CC2)cc1Cl` (centres unmarked) [Example 2-118, 2-chloro-4-[4-({1-[cyclopropyl (hydroxy)pyridin-2-ylacetyl]piperidin-4-yl}methyl)piperidin-1-yl]-N,N-dimethyl-benzamide], in test [1], the “LXR alpha IP (nM)” value is given as “NO IP” and the Emax is 11%. In test [2], the 50% effective concentration (EC50) was determined as 219 nM and the Emax turned out to be 68%.
For the compound `COc1cccc([C@](N)(C(=O)N2CCC(CC3CCN(c4ccc(C(=O)N(C)C)c(Cl)c4)CC3)CC2)C(F)(F)F)c1` [Example 2-119, 4-[4-({1-[(2S)-2-amino-3,3,3-trifluoro-2-(3-methoxy-phenyl)propanoyl]piperidin-4-yl}methyl)piperidin-1-yl]-2-chloro-N,N-dimethyl-benzamide], the values for the Emax in test [1] (setting [3]) and in test [2] (setting [3]) were 11% and 99%, respectively. In addition, the “LXR alpha IP (nM)” value in test [1] is given as “NO IP”. For the same compound, in test [2], the pEC50 was 6.68.
On the same counts, the results for `CN(C)C(=O)c1ccc(N2CCC(CC3CCN(C(=O)[C@](O)(c4cccc(CC#N)c4)C(F)(F)F)CC3)CC2)cc1Cl` [Example 2-120, 2-chloro-4-{4-[(1-{(2R)-2-[3-(cyanomethyl)phenyl]-3,3,3-trifluoro-2-hydroxy-propanoyl}piperidin-4-yl)methyl]piperidin-1-yl}-N,N-dimethyl-benzamide] are 6%, 46%, “NO IP” and 7.80.
